Test systems include UACC-62; SNB-75; SK-MEL-2; IGROV-1; HOP-62; RXF 393; NCI/ADR-RES; RPMI-8226; NCI-H23; A498; BT-549; KM12; MOLT-4; U-251; NCI-H226; ACHN; NCI-H460; HT-29; 786-0; SR.
What all share (experiment): DTP human tumour cell line panel, 48 h

Structures are written as SMILES.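 A five-concentration, 48-hour dose response in 96-well plates underlies each endpoint, interpolated linearly between surrounding concentrations. GI50 marks 50% less growth.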 Active and inactive are the calls of the source. Rule as the data show it: active = GI50 up to about 1.1 µM and inactive = higher. *1 amine or outer side, *2 acyl side, *3 side chain or, on linkers, in order; H or OH if unused. Where a SMILES comes first, the peptide text is derived from it. Bridges are numbered along the chain shown (N, C = ends). [ ]: non-standard residue; d: D form. The star is where a group is joined. ξ: configuration not given here. ξOrn(4,5-diOH) = O=C(C(CC(O)C(O)N[*:3])N[*:1])[*:2]; ξhTyr(βξ-OH,γξ-OH) = NC(C(=O)O)C(O)C(O)c1ccc(O)cc1; ξPro(3ξ-OH,4ξ-Me) = CC1CNC(C(=O)O)C1O; X55 = CCCCC/C=C/C/C=C\CCCCCCCC(=O)*; Hyp = O=C(O)[CH]1C[CH](O)CN1 Some results are limits rather than exact numbers.

Take `CCOc1cc2c(cc1O)C(=O)C[C@@H]1[C@@H]2CC[C@]2(C)[C@@H](O)CC[C@@H]12`: the GI50 (commonly the concentration that inhibits growth by half) in the experiment with UACC-62 is 0.0682 µM (active); in the experiment on SNB-75, 0.106 µM (active); in the experiment on SK-MEL-2, 4.85 µM (inactive); in the experiment with IGROV-1 it was 0.861 µM (active); with HOP-62, 0.213 µM (active); in the experiment on RXF 393, 1.59 µM (inactive). For the same molecule, the GI50 in the experiment on NCI/ADR-RES was 0.0955 µM (active); in the experiment with RPMI-8226, 0.154 µM (active); in the experiment with NCI-H23, 0.33 µM (active); in the experiment with A498 it was 0.269 µM (active); in the experiment on BT-549 it was 0.15 µM (active); in the experiment on KM12, 2.69 µM (inactive). Moreover, the GI50 in the experiment on MOLT-4 is 0.172 µM (active); in the experiment with U-251 it was 0.173 µM (active); in the experiment with NCI-H226, 0.561 µM (active); in the experiment with ACHN, 0.168 µM (active); in the experiment on NCI-H460, 0.0982 µM (active); with HT-29, 6.87 µM (inactive). The GI50 with 786-0 was 0.177 µM (active).
Consider `CC1=NNC(=O)C1C(CC(=O)c1c[nH]c2ccccc12)C(=O)O` (stereo not given), for which the GI50 with UACC-62 is > 100 µM (inactive); in the experiment with SNB-75 it was > 100 µM (inactive); in the experiment with SK-MEL-2, > 100 µM (inactive); in the experiment on IGROV-1, 15 µM (inactive); in the experiment with HOP-62, > 100 µM (inactive); with RXF 393, > 100 µM (inactive). In addition, the GI50 was > 100 µM (inactive) in the experiment on NCI/ADR-RES; 35.1 µM (inactive) in the experiment with RPMI-8226; > 100 µM (inactive) with NCI-H23; > 100 µM (inactive) with A498; > 100 µM (inactive) in the experiment on BT-549; 30.1 µM (inactive) with KM12. For the same molecule, the GI50 in the experiment on MOLT-4 was 49 µM (inactive); with U-251, > 100 µM (inactive); in the experiment with NCI-H226, > 100 µM (inactive); with ACHN, > 100 µM (inactive); in the experiment with NCI-H460 it was > 100 µM (inactive); with HT-29, > 100 µM (inactive). Moreover, the GI50 in the experiment with 786-0 is > 100 µM (inactive).
Turning to `COc1ccc(/C(C)=N/NC(=O)c2ccncc2)cc1OC`, the GI50 with UACC-62, with SNB-75, in the experiment with IGROV-1, with HOP-62, in the experiment with SR and with NCI/ADR-RES was > 10 µM (inactive) each time. The GI50 in the experiment on RPMI-8226, in the experiment with NCI-H23, in the experiment on A498, in the experiment on BT-549, in the experiment on KM12 and in the experiment with MOLT-4 was > 10 µM (inactive) throughout. In addition, the GI50 was > 10 µM (inactive) with U-251, 2.82 µM (inactive) in the experiment on NCI-H226, > 10 µM (inactive) with NCI-H460 and > 10 µM (inactive) in the experiment on 786-0.
Turning to `CCOC(=O)/C=C(/C(=O)OCC)n1ccc(N)nc1=O`, the GI50 in the experiment on UACC-62 is > 100 µM (inactive); in the experiment with SNB-75, 95.1 µM (inactive); with SK-MEL-2, > 100 µM (inactive); in the experiment with IGROV-1, > 100 µM (inactive); with HOP-62, > 100 µM (inactive); in the experiment with SR, 89.1 µM (inactive). For the same molecule, the GI50 with NCI/ADR-RES was > 100 µM (inactive); in the experiment with RPMI-8226 it was > 100 µM (inactive); in the experiment on NCI-H23, > 100 µM (inactive); with BT-549, 61.4 µM (inactive); in the experiment with KM12, > 100 µM (inactive); in the experiment with MOLT-4, 92 µM (inactive). Moreover, the GI50 with U-251 was > 100 µM (inactive); in the experiment with NCI-H226, > 100 µM (inactive); with ACHN, > 100 µM (inactive); with NCI-H460, > 100 µM (inactive); in the experiment with HT-29, 62.1 µM (inactive); in the experiment with 786-0, > 100 µM (inactive).
As for `COc1ccc(N[S+]([O-])c2c(C)cc(C)cc2C)cc1` (stereo not given), the GI50 in the experiment on UACC-62 is 33.7 µM (inactive); in the experiment on SK-MEL-2, > 100 µM (inactive); in the experiment with IGROV-1 it was 22.5 µM (inactive); with HOP-62, 72.1 µM (inactive); in the experiment on SR, 35.7 µM (inactive); with NCI/ADR-RES, 49.8 µM (inactive). For the same molecule, the GI50 is 45.3 µM (inactive) with RPMI-8226; > 100 µM (inactive) with NCI-H23; 1.79 µM (inactive) in the experiment on BT-549; 22.5 µM (inactive) with KM12; 40.1 µM (inactive) in the experiment with MOLT-4; 50 µM (inactive) with U-251. Moreover, the GI50 with NCI-H226 was 36.2 µM (inactive); with ACHN it was 43.7 µM (inactive); in the experiment with NCI-H460, 35.6 µM (inactive); in the experiment on HT-29 it was 46.1 µM (inactive); in the experiment on 786-0 it was 89.5 µM (inactive).
On to `O=C(NC1=NC2C=CC([N+](=O)[O-])=CC2S1)C(=O)Nn1c(S)nc2ccccc2c1=O` (stereo not given), for which the GI50 was 92 µM (inactive) in the experiment with UACC-62; 47.1 µM (inactive) with SNB-75; > 100 µM (inactive) in the experiment on SK-MEL-2; 21 µM (inactive) in the experiment on IGROV-1; > 100 µM (inactive) in the experiment with HOP-62; 50.6 µM (inactive) in the experiment with RXF 393. Also, the GI50 was > 100 µM (inactive) in the experiment with NCI/ADR-RES; 50.6 µM (inactive) in the experiment on RPMI-8226; 40.7 µM (inactive) in the experiment with NCI-H23; 30.4 µM (inactive) in the experiment on A498; 65.8 µM (inactive) in the experiment with BT-549; > 100 µM (inactive) in the experiment on KM12. In addition, the GI50 with MOLT-4 was 63 µM (inactive); in the experiment with U-251, 66.7 µM (inactive); in the experiment on NCI-H226, 18.8 µM (inactive); in the experiment with ACHN it was 24.1 µM (inactive); with NCI-H460, 80.5 µM (inactive); with HT-29 it was > 100 µM (inactive). Moreover, the GI50 in the experiment on 786-0 was > 100 µM (inactive).
With `c1ccc2c(c1)SCCCS2`, the GI50 with UACC-62, in the experiment with SNB-75, with IGROV-1, with HOP-62, in the experiment with SR and in the experiment with NCI/ADR-RES was > 100 µM (inactive) in each case. In addition, the GI50 with NCI-H23, with BT-549, in the experiment on KM12, in the experiment with MOLT-4, in the experiment on U-251 and in the experiment with NCI-H460 was > 100 µM (inactive) each time. Also, the GI50 with HT-29 and in the experiment on 786-0 was > 100 µM (inactive) each time.
Regarding `O=c1cc(NNc2cccc(F)c2)[nH]c(=S)[nH]1`, the GI50 is > 100 µM (inactive) in the experiment on IGROV-1; > 100 µM (inactive) with HOP-62; > 100 µM (inactive) in the experiment on SR; > 100 µM (inactive) in the experiment with NCI/ADR-RES; 42.4 µM (inactive) with RPMI-8226; > 100 µM (inactive) with A498. Besides, the GI50 with BT-549 was > 100 µM (inactive); with KM12, 96.8 µM (inactive); with U-251, 54.6 µM (inactive); with NCI-H226 it was > 100 µM (inactive); in the experiment on ACHN it was > 100 µM (inactive); in the experiment with NCI-H460, > 100 µM (inactive). In addition, the values for the GI50 in the experiment with HT-29 and with 786-0 were > 100 µM (inactive) and 44.3 µM (inactive), respectively.
Regarding `COC(=O)CCC1=CCC2(SC)C(=O)Nc3cccc1c32` (stereo not given), the GI50 with UACC-62, in the experiment on SNB-75, in the experiment on SK-MEL-2, in the experiment with IGROV-1, with HOP-62 and in the experiment on SR was > 100 µM (inactive) in each case. The GI50 in the experiment with NCI/ADR-RES, in the experiment with RPMI-8226, in the experiment on NCI-H23, in the experiment with BT-549, with KM12 and in the experiment with MOLT-4 was > 100 µM (inactive) each time. Besides, the GI50 with U-251, in the experiment on NCI-H226, in the experiment with ACHN, in the experiment on NCI-H460, in the experiment on HT-29 and in the experiment on 786-0 was > 100 µM (inactive) throughout.
Regarding `N#CSc1ccc(S(N)(=O)=O)cc1`, the GI50 in the experiment with UACC-62 was 70 µM (inactive); in the experiment with SNB-75 it was > 100 µM (inactive); in the experiment with SK-MEL-2, 46.5 µM (inactive); with IGROV-1, 49.7 µM (inactive); with HOP-62, > 100 µM (inactive); in the experiment on RXF 393 it was 26.1 µM (inactive). The GI50 in the experiment on NCI/ADR-RES is > 100 µM (inactive); in the experiment with RPMI-8226, 26.5 µM (inactive); in the experiment with NCI-H23 it was > 100 µM (inactive); with A498, > 100 µM (inactive); in the experiment with BT-549, > 100 µM (inactive); in the experiment with KM12, > 100 µM (inactive). For the same molecule, the GI50 with MOLT-4 was 1 µM (active); with U-251, 17.4 µM (inactive); in the experiment on NCI-H226, > 100 µM (inactive); with ACHN, 29.6 µM (inactive); in the experiment on NCI-H460 it was > 100 µM (inactive); with HT-29, 82 µM (inactive). Besides, the GI50 with 786-0 is 26.1 µM (inactive).
On to `CCCCC/C=C/C/C=C\CCCCCCCC(=O)NC1CC(O)C(O)NC(=O)C2C(O)C(C)CN2C(=O)C(C(C)O)NC(=O)C(C(O)C(O)c2ccc(O)cc2)NC(=O)C2CC(O)CN2C(=O)C(C(C)O)NC1=O` (stereo not drawn) (X55-[ξOrn(4,5-diOH)]T[Hyp][ξhTyr(βξ-OH,γξ-OH)]T[ξPro(3ξ-OH,4ξ-Me)]; lactam 1-C; configuration not given here), for which the GI50 in the experiment on UACC-62, with SNB-75, in the experiment with SK-MEL-2, in the experiment on IGROV-1, in the experiment with HOP-62 and with SR was > 100 µM (inactive) each time. Moreover, the GI50 in the experiment with NCI/ADR-RES, with RPMI-8226, with NCI-H23, in the experiment with BT-549, with KM12 and in the experiment on MOLT-4 was > 100 µM (inactive) in each case. Also, the GI50 in the experiment with U-251, in the experiment with ACHN, with NCI-H460, in the experiment with HT-29 and in the experiment on 786-0 was > 100 µM (inactive) throughout.

Values taken from ChEMBL document CHEMBL1201862, “PubChem BioAssay data set” (2004).
